{"source": "paper PMC8351955", "about": "“Targeting Mycobacterium tuberculosis response to environmental cues for the development of effective antitubercular drugs” (PLoS Biology, 2021)", "key": {"[1]": {"test_system": "CDC1551(rv1405c′::GFP) reporter Mtb strain", "experiment": "microbe, parasite or virus in culture", "assay_type": "cell-based, Mycobacterium tuberculosis", "details": "for NPA - rv1405c'::GFP, average: Fig 1D"}, "[2]": {"experiment": "Mouse liver microsomal stability", "assay_type": "in vitro ADME", "details": "mouse liver microsomes; read-out: half-life (t1/2) in mouse liver microsomes", "protocol": "(§1) Assays examining mouse and human liver microsomal stability, kinetic aqueous solubility, mouse and human plasma protein binding and stability, and human cytochrome P450 inhibition characteristics of the compounds were run by BioDuro (San Diego, CA), using standard protocols as previously described [37]. hERG inhibition assays were also performed by BioDuro."}, "[3]": {"test_system": "CDC1551(rv2390c′::GFP) reporter Mtb strain", "experiment": "microbe, parasite or virus in culture", "details": "Mycobacterium tuberculosis, 216 h"}, "[4]": {"test_system": "CDC1551(rv2390c′::GFP) reporter Mtb strain", "details": "pH 7"}, "[5]": {"test_system": "WT Mtb (Erdman) in primary murine BMDMs", "experiment": "Primary murine bone marrow-derived macrophage infection, CFU", "assay_type": "cell-based, Mycobacterium tuberculosis", "details": "10 μM; for CFU/ml in BMDMs, average: Fig 1I", "procedure": "C57BL/6J wild-type mice (Jackson Laboratories) were used for extraction of BMDMs. Cells were harvested and expanded in DMEM containing 10% FBS, 15% L-cell conditioned media, 2 mM L-glutamine, 1 mM sodium pyruvate, and penicillin/streptomycin as needed in a 37°C incubator in a 5% CO2 atmosphere. […] Macrophages were lysed with water containing 0.01% sodium dodecyl sulfate and a dilution series of the samples plated on 7H10 agar for CFU determination."}, "[6]": {"test_system": "Mtb growth in J774 murine macrophage-like cells", "experiment": "microbe, parasite or virus in culture", "assay_type": "cell-based, Mycobacterium tuberculosis", "details": "for NPI (Mtb growth in J774 cells), average: Fig 1F"}, "[7]": {"experiment": "Pharmacokinetic assay, single oral dose in CD-1 mice", "assay_type": "in vivo", "details": "female, mouse, plasma; CD-1 mice, single 5 mg/kg po dose; read-out: plasma AUC0–5h", "procedure": "Blood samples were collected in K2EDTA-coated tubes predose, 0.5, 1, 3, and 5 hours post-dose, placed on ice, and centrifuged to recover plasma. The recovered plasma was kept at −80°C as needed prior to analysis, which was performed as previously described. In brief, a Sciex Applied Biosystems Qtrap 4000 triple-quadrupole mass spectrometer coupled to an Agilent 1260 HPLC system was used for HPLC coupled to tandem mass spectrometry (LC–MS/MS) quantitative analysis of the samples, with chromatography attained using an Agilent Zorbax SB-C8 column (2.1 × 30 mm; particle size, 3.5 μm) and a reverse-phase gradient elution. The aqueous mobile phase consisted of Milli-Q deionized water with 0.1% formic acid (A), while the organic mobile phase was 0.1% formic acid in acetonitrile (B). The gradient setup was as follows: 5% to 90% B over 2 minutes, 1 minute at 90% B, then an immediate drop to 5% B and an additional 1 minute at 5% B. Quantification of molecules was carried out via multiple reaction monitoring of parent/daughter transitions in electrospray positive ionization mode, and sample analyses accepted if quality control and standard samples had concentrations within 20% of the nominal concentration. Preparation of compounds for generation of standard curves and quality control spiking solutions were performed as previously described. Data were processed using Analyst software (Version 1.6.2; Applied Biosystems Sciex, Framingham, MA)."}, "[8]": {"test_system": "CDC1551(rv2390c′::GFP) reporter Mtb strain, response to high [Cl−]", "experiment": "microbe, parasite or virus in culture", "assay_type": "cell-based, Mycobacterium tuberculosis"}, "[9]": {"test_system": "Mtb growth in J774 macrophage-like cells", "experiment": "J774 infection in 96-well plates, mKO fluorescence 6 days post-infection", "assay_type": "cell-based, Mycobacterium tuberculosis", "details": "6 days post-infection", "procedure": "For J774 infection in 96-well plates, 1.8 × 10^5 J774 cells were seeded per well in 180 μl of J774 infection media 1 day prior to infection. On the day of the assay, log-phase Mtb constitutively expressing mKO were pelleted and resuspended in 1 ml basal uptake buffer, passed 6× through a tuberculin syringe with a 25 G × 5/8″ needle, then resuspended in J774 infection media to a final OD600 = 0.2. Media was removed from 96-well plate containing the J774 cells, with 140 μl of fresh J774 infection media added back to each well. A volume of 40 μl of the Mtb suspension at OD600 = 0.2 was added to each well, followed by addition of appropriate concentration of compound or DMSO in a 20-μl final volume in J774 infection media (compound final concentration 10 μM, rifampicin final concentration 5 μM, DMSO final concentration 0.1%/well). Bacterial mKO fluorescence was read immediately after infection using a Biotek Synergy Neo2 microplate reader (bottom read monochromator, excitation 543/10 nm, emission 565/10 nm), and again 6 days post-infection. Plates were kept in humidified ziplock bags in a 37°C, 5% CO2 incubator. mKO fluorescence in DMSO-treated control samples were defined as 100% growth, and fluorescence observed in treatment conditions calculated as a percentage from that set value."}, "[10]": {"experiment": "Kinetic aqueous solubility", "assay_type": "physicochemical", "details": "pH 7.4 phosphate buffered saline; read-out: kinetic aqueous solubility (S)", "protocol": "as §1"}}, "note": "Read-outs that look alike come from different tables or passages of the source.", "data": [{"smiles": "O=C(c1cnc2ccccn12)N1CCCC(CCc2cccc(C(F)(F)F)c2)C1", "note": "(stereo not shown) [C5, FC(F)(F)C1=CC=CC(CCC2CCCN(C2)C(=O)C2=CN=C3C=CC=CN23)=C1]", "values": [{"measurement": "NPA - rv1405c'::GFP, average", "setting": "[1]; 0.0390625 µM", "value": 91.05, "unit": "%"}, {"measurement": "NPA - rv1405c'::GFP, average", "setting": "[1]; 0.078125 µM", "value": 91.6, "unit": "%"}, {"measurement": "NPA - rv1405c'::GFP, average", "setting": "[1]; 0.15625 µM", "value": 98.45, "unit": "%"}, {"measurement": "NPA - rv1405c'::GFP, average", "setting": "[1]; 0.3125 µM", "value": 118, "unit": "%"}, {"measurement": "NPA - rv1405c'::GFP, average", "setting": "[1]; 0.625 µM", "value": 125, "unit": "%"}, {"measurement": "NPA - rv1405c'::GFP, average", "setting": "[1]; 1.25 µM", "value": 130, "unit": "%"}, {"measurement": "NPA - rv1405c'::GFP, average", "setting": "[1]; 2.5 µM", "value": 114.5, "unit": "%"}, {"measurement": "NPA - rv1405c'::GFP, average", "setting": "[1]; 5 µM", "value": 132.5, "unit": "%"}, {"measurement": "NPA - rv1405c'::GFP, average", "setting": "[1]; 20 µM", "value": 145.5, "unit": "%"}, {"measurement": "activity at 10 µM", "setting": "[1]; Mycobacterium tuberculosis, read-out: rv1405c'::GFP secondary assay NPA% at 10 µM compound", "value": "135 ± 14.8", "unit": "%"}, {"measurement": "activity at 20 µM", "setting": "[1]; Mycobacterium tuberculosis, read-out: rv1405c'::GFP secondary assay NPA% at 20 µM compound", "value": "147 ± 7", "unit": "%"}, {"measurement": "half-life", "setting": "[2]", "value": 4.98, "unit": "min"}, {"measurement": "fold induction at 10 µM", "setting": "[3]; pH 7, read-out: Fold induction of rv2390c′::GFP reporter, average", "value": 6.34}, {"measurement": "fold induction at 10 µM", "setting": "[3]; read-out: Fold induction of rv2390c′::GFP reporter, average", "value": 5.92}, {"measurement": "Ability to increase rv2390c′::GFP reporter signal in high [Cl−]", "setting": "[4]", "value": "increased rv2390c′::GFP reporter signal"}, {"measurement": "Effect on bacterial load / Mtb growth in primary murine BMDMs", "setting": "[5]; 8-day infection time course, vs DMSO", "value": "significant decrease in bacterial load"}, {"measurement": "CFU/ml in BMDMs, average", "setting": "[5]; day 2", "value": 152000, "unit": "CFU/ml"}, {"measurement": "CFU/ml in BMDMs, average", "setting": "[5]; day 4", "value": 191000, "unit": "CFU/ml"}, {"measurement": "CFU/ml in BMDMs, average", "setting": "[5]; day 6", "value": 264500, "unit": "CFU/ml"}, {"measurement": "CFU/ml in BMDMs, average", "setting": "[5]; day 8", "value": 318000, "unit": "CFU/ml"}, {"measurement": "NPI (Mtb growth in J774 cells), average", "setting": "[6]; 0.078125 µM, 5 µM rifampicin = 100% inhibition", "value": -6.175, "unit": "%"}, {"measurement": "NPI (Mtb growth in J774 cells), average", "setting": "[6]; 0.15625 µM", "value": 0.5445, "unit": "%"}, {"measurement": "NPI (Mtb growth in J774 cells), average", "setting": "[6]; 0.3125 µM", "value": -0.235, "unit": "%"}, {"measurement": "NPI (Mtb growth in J774 cells), average", "setting": "[6]; 0.625 µM", "value": 9.79, "unit": "%"}, {"measurement": "NPI (Mtb growth in J774 cells), average", "setting": "[6]; 1.25 µM", "value": 32.35, "unit": "%"}, {"measurement": "NPI (Mtb growth in J774 cells), average", "setting": "[6]; 2.5 µM", "value": 39.55, "unit": "%"}, {"measurement": "NPI (Mtb growth in J774 cells), average", "setting": "[6]; 5 µM", "value": 48.4, "unit": "%"}, {"measurement": "NPI (Mtb growth in J774 cells), average", "setting": "[6]; 10 µM", "value": 50.85, "unit": "%"}, {"measurement": "NPI (Mtb growth in J774 cells), average", "setting": "[6]; 20 µM", "value": 55, "unit": "%"}, {"measurement": "inhibition at 10 µM", "setting": "[6]; Mycobacterium tuberculosis, J774, 144 h, read-out: J774 tertiary assay % inhibition compared to Rif at 10 µM compound", "value": "50.9 ± 3.2", "unit": "%"}, {"measurement": "inhibition at 20 µM", "setting": "[6]; Mycobacterium tuberculosis, J774, 144 h, read-out: J774 tertiary assay % inhibition compared to Rif at 20 µM compound", "value": "55 ± 5.8", "unit": "%"}, {"measurement": "AUC(0-t)", "setting": "[7]", "value": 42, "unit": "ng·h/mL"}, {"measurement": "NPA - rv2390c'::GFP, average", "setting": "[8]; 0.0390625 µM, Fig 1C", "value": 99.0333, "unit": "%"}, {"measurement": "NPA - rv2390c'::GFP, average", "setting": "[8]; 0.078125 µM, Fig 1C", "value": 96.3333, "unit": "%"}, {"measurement": "NPA - rv2390c'::GFP, average", "setting": "[8]; 0.15625 µM, Fig 1C", "value": 99.1, "unit": "%"}, {"measurement": "NPA - rv2390c'::GFP, average", "setting": "[8]; 0.3125 µM, Fig 1C", "value": 113.667, "unit": "%"}, {"measurement": "NPA - rv2390c'::GFP, average", "setting": "[8]; 0.625 µM, Fig 1C", "value": 116.667, "unit": "%"}, {"measurement": "NPA - rv2390c'::GFP, average", "setting": "[8]; 1.25 µM, Fig 1C", "value": 131.667, "unit": "%"}, {"measurement": "NPA - rv2390c'::GFP, average", "setting": "[8]; 2.5 µM, Fig 1C", "value": 132.333, "unit": "%"}, {"measurement": "NPA - rv2390c'::GFP, average", "setting": "[8]; 5 µM, Fig 1C", "value": 137, "unit": "%"}, {"measurement": "NPA - rv2390c'::GFP, average", "setting": "[8]; 10 µM, Fig 1C", "value": 131.333, "unit": "%"}, {"measurement": "NPA - rv2390c'::GFP, average", "setting": "[8]; 20 µM, Fig 1C", "value": 142.333, "unit": "%"}, {"measurement": "activity at 10 µM", "setting": "[8]; Mycobacterium tuberculosis, 144 h, pH 6.4, […], DMSO positive control = 100%, read-out: Primary screen rv2390c'::GFP NPA%", "value": 182, "unit": "%"}, {"measurement": "activity at 10 µM", "setting": "[8]; Mycobacterium tuberculosis, 144 h, 10 µM, pH 6.4, 250 mM NaCl, 6 days, read-out: rv2390c'::GFP validation assay NPA% at 10 µM compound", "value": "131 ± 9.8", "unit": "%"}, {"measurement": "activity at 20 µM", "setting": "[8]; Mycobacterium tuberculosis, 144 h, 20 µM, pH 6.4, 250 mM NaCl, 6 days, read-out: rv2390c'::GFP validation assay NPA% at 20 µM compound", "value": "142 ± 4.2", "unit": "%"}, {"measurement": "AC50", "setting": "[8]; Mycobacterium tuberculosis, 144 h, pH 6.4, 250 mM NaCl, 6 days, Fig 1C, read-out: AC50 (activatory concentration, 50%), rv2390c′::GFP", "value": 500, "unit": "nM"}, {"measurement": "% growth of Mtb in J774 cells, average", "setting": "[9]; 10 μM compound, DMSO = 100%, Fig 1H", "value": 37.9568, "unit": "%"}, {"measurement": "Inhibition of Mtb growth in J774 cells", "setting": "[9]; 10 μM", "value": "Mtb growth inhibition"}, {"measurement": "solubility kinetic", "setting": "[10]", "value": 6.67, "unit": "µM"}]}]}
